According to patent US20210222225A1, “Medium for Disk Diffusion Method to Evaluate Antibiotic Sensitivity” (priority 2018, published 2021):

Tests used:
KPN K3007_S = assay: Colistin disk diffusion, guanidine hydrochloride medium, K3007_S; type: cell-based, Klebsiella pnemoniae; conditions: 30% agar
Method: (§1) A concentration of agar particles (BD Diagnostic, Sparks, Md., USA) in Mueller-Hinton broth medium (BD Diagnostic) was adjusted to 5.1 g/L, which is 30% of 17 g/L, and guanidine hydrochloride was added to a concentration of 500 μg/ml, 50 μg/ml, or 5 μg/ml. Then, solidification was performed. On a surface of each medium thus prepared was evenly inoculated each of colistin-susceptible (S) or -resistant (R) Acinetobacter baumannii (ABA) strain, colistin-susceptible (S) or -resistant (R) Klebsiella pnemoniae (KPN) strain, and colistin-susceptible (S) or -resistant (R) Pseudomonas aeruginosa (PAE) strain, and a colistin disk was placed thereon. Then, pictures of a growth inhibition zone, which had been formed clear, around the disk were taken for each strain, and the results are illustrated in FIGS. 8 to 10.

PAE P1618_R = assay: Colistin disk diffusion, guanidine hydrochloride medium, P1618_R; type: cell-based, Pseudomonas aeruginosa; conditions: 30% agar
Method: as §1

ABA A14_S = assay: Colistin disk diffusion, guanidine hydrochloride medium, A14_S; type: cell-based, Acinetobacter baumannii; conditions: 30% agar
Method: as §1

[1] = tested on: colistin-susceptible (S) Acinetobacter calcoaceticus-baumannii complex (ACB) strain; assay: Colistin disk diffusion on modified Mueller-Hinton agar, ACB-S; type: cell-based
Method: (§2) To each MHA thus modified was added protamine (Sigma-Aldrich, St Louis, Mo., USA) at a concentration of 100 μg/ml, and solidification was performed. Then, on a surface of the medium was evenly inoculated each of colistin-susceptible (S) or -resistant (R) Acinetobacter calcoaceticus-baumannii complex (ACB) strain, Pseudomonas aeruginosa ATCC27853 strain, Escherichia coli ATCC25922 strain, and mcr-1-harboring Enterobacter aerogenes strain, and a colistin disk was placed thereon. Subsequently, a diameter of a growth inhibition zone (colistin inhibition zone), which had been formed clear by diffusion of colistin to the agar around the colistin disk, was measured.
(§3) As in Example 1, a concentration of agar particles (BD Diagnostic, Sparks, Md., USA) in Mueller-Hinton broth medium (BD Diagnostic) was adjusted to 17 g/L or 5.1 g/L that is 30% of 17 g/L. To select a concentration of protamine, which can enhance diffusion of colistin from a disk without interfering with bacterial growth, while using the protamine at various concentrations, protamine (Sigma-Aldrich, St Louis, Mo., USA) was added to the medium at concentrations of 1 mg/ml, 700 μg/ml, 400 μg/ml, 300 μg/ml, 200 μg/ml, 150 μg/ml, 100 μg/ml, and 50 μg/ml. Each medium thus modified was solidified. Then, on a surface of each medium was evenly inoculated each of colistin-susceptible (S) or -resistant (R) Acinetobacter calcoaceticus-baumannii complex (ACB) strain, Pseudomonas aeruginosa ATCC27853 strain, and mcr-1-harboring Enterobacter aerogenes strain, and a colistin disk was placed thereon. Then, it was determined whether each strain was grown, and a diameter of a growth inhibition zone, which had been formed around the disk, was measured.

PAE P1401_S = assay: Colistin disk diffusion, guanidine hydrochloride medium, P1401_S; type: cell-based, Pseudomonas aeruginosa; conditions: 30% agar
Method: as §1

[2] = tested on: colistin-resistant (R) Acinetobacter calcoaceticus-baumannii complex (ACB) strain; assay: Colistin disk diffusion on modified Mueller-Hinton agar, ACB-R; type: cell-based
Method: as §2, §3

KPN K4036_R = assay: Colistin disk diffusion, guanidine hydrochloride medium, K4036_R; type: cell-based, Klebsiella pnemoniae; conditions: 30% agar
Method: as §1

[3] = guanidine hydrochloride 5 μg/ml
[4] = guanidine hydrochloride 50 μg/ml
[5] = guanidine hydrochloride 500 μg/ml
[6] = 30% agar, protamine 1,000 μg/ml
[7] = 100% agar, protamine 1,000 μg/ml

**Q.** How did the “Disk diffusion (mm)” value (KPN K3007_S; [3]) turn out when colistin was run?
**A.** Its value is 17 mm.

**Q.** What about the “Disk diffusion (mm)” value (KPN K3007_S; [4]) of the same substance?
**A.** Its value is 16 mm.

**Q.** And the “Disk diffusion (mm)” value (KPN K3007_S; [5])?
**A.** The value was 16 mm.

**Q.** What about the “Disk diffusion (mm)” value (PAE P1618_R; [3]) of the same substance?
**A.** Its value is 12 mm.

**Q.** What about the “Disk diffusion (mm)” value (PAE P1618_R; [4]) of the same substance?
**A.** Its value is 13 mm.

**Q.** What about the “Disk diffusion (mm)” value (PAE P1618_R; [5]) of the same substance?
**A.** Its value is 13 mm.

**Q.** And the “Disk diffusion (mm)” value (ABA A14_S; [3])?
**A.** The value was 15 mm.

**Q.** What about the “Disk diffusion (mm)” value (ABA A14_S; [4]) of the same substance?
**A.** The value was 15 mm.

**Q.** And the “Disk diffusion (mm)” value (ABA A14_S; [5])?
**A.** The value was 15 mm.

**Q.** What about the “Disk diffusion (mm)” value ([1]; 30% agar, protamine 50 μg/ml) of the same substance?
**A.** The value was 14 mm.

**Q.** What about the “Diameter (mm) of colistin inhibition zone” value ([1]; 30% agar, protamine 100 μg/ml) of the same substance?
**A.** The value was 16 mm.

**Q.** What about the “Disk diffusion (mm)” value ([1]; 30% agar, protamine 100 μg/ml) of the same substance?
**A.** Its value is 15 mm.

**Q.** What about the “Disk diffusion (mm)” value ([1]; 30% agar, protamine 150 μg/ml) of the same substance?
**A.** The value was 15 mm.

**Q.** What about the “Disk diffusion (mm)” value ([1]; 30% agar, protamine 200 μg/ml) of the same substance?
**A.** Its value is 14 mm.

**Q.** What about the “Disk diffusion (mm)” value ([1]; 30% agar, protamine 300 μg/ml) of the same substance?
**A.** Its value is 6 mm.

**Q.** And the “Disk diffusion (mm)” value ([1]; 30% agar, protamine 400 μg/ml)?
**A.** Its value is 6 mm.

**Q.** And the “Disk diffusion (mm)” value ([1]; 30% agar, protamine 700 μg/ml)?
**A.** The value was 6 mm.

**Q.** What about the “Disk diffusion (mm)” value [1, 6] of the same substance?
**A.** The value was 6 mm.

**Q.** What about the “Diameter (mm) of colistin inhibition zone” value ([1]; 40% agar, protamine 100 μg/ml) of the same substance?
**A.** The value was 15 mm.

**Q.** And the “Diameter (mm) of colistin inhibition zone” value ([1]; 50% agar, protamine 100 μg/ml)?
**A.** Its value is 13 mm.

**Q.** And the “Diameter (mm) of colistin inhibition zone” value ([1]; 60% agar, protamine 100 μg/ml)?
**A.** Its value is 13 mm.

**Q.** What about the “Diameter (mm) of colistin inhibition zone” value ([1]; 70% agar, protamine 100 μg/ml) of the same substance?
**A.** The value was 13 mm.

**Q.** What about the “Diameter (mm) of colistin inhibition zone” value ([1]; 80% agar, protamine 100 μg/ml) of the same substance?
**A.** The value was 12 mm.

**Q.** And the “Diameter (mm) of colistin inhibition zone” value ([1]; 90% agar, protamine 100 μg/ml)?
**A.** The value was 12 mm.

**Q.** And the “Disk diffusion (mm)” value ([1]; 100% agar, protamine 50 μg/ml)?
**A.** Its value is 13 mm.

**Q.** What about the “Diameter (mm) of colistin inhibition zone” value ([1]; 100% agar, protamine 100 μg/ml) of the same substance?
**A.** The value was 12 mm.

**Q.** What about the “Disk diffusion (mm)” value ([1]; 100% agar, protamine 100 μg/ml) of the same substance?
**A.** Its value is 12 mm.

**Q.** And the “Disk diffusion (mm)” value ([1]; 100% agar, protamine 150 μg/ml)?
**A.** The value was 13 mm.

**Q.** And the “Disk diffusion (mm)” value ([1]; 100% agar, protamine 200 μg/ml)?
**A.** The value was 12 mm.

**Q.** What about the “Disk diffusion (mm)” value ([1]; 100% agar, protamine 300 μg/ml) of the same substance?
**A.** Its value is 13 mm.

**Q.** What about the “Disk diffusion (mm)” value ([1]; 100% agar, protamine 400 μg/ml) of the same substance?
**A.** The value was 14 mm.

**Q.** What about the “Disk diffusion (mm)” value ([1]; 100% agar, protamine 700 μg/ml) of the same substance?
**A.** The value was 10 mm.

**Q.** What about the “Disk diffusion (mm)” value [1, 7] of the same substance?
**A.** Its value is 6 mm.

**Q.** What about the “Disk diffusion (mm)” value (PAE P1401_S; [3]) of the same substance?
**A.** Its value is 16 mm.

**Q.** What about the “Disk diffusion (mm)” value (PAE P1401_S; [4]) of the same substance?
**A.** Its value is 15 mm.

**Q.** What about the “Disk diffusion (mm)” value (PAE P1401_S; [5]) of the same substance?
**A.** The value was 16 mm.

**Q.** What about the “Disk diffusion (mm)” value ([2]; 30% agar, protamine 50 μg/ml) of the same substance?
**A.** The value was 13 mm.

**Q.** What about the “Diameter (mm) of colistin inhibition zone” value ([2]; 30% agar, protamine 100 μg/ml) of the same substance?
**A.** The value was 11 mm.

**Q.** And the “Disk diffusion (mm)” value ([2]; 30% agar, protamine 100 μg/ml)?
**A.** The value was 11 mm.

**Q.** And the “Disk diffusion (mm)” value ([2]; 30% agar, protamine 150 μg/ml)?
**A.** The value was 10 mm.

**Q.** And the “Disk diffusion (mm)” value ([2]; 30% agar, protamine 200 μg/ml)?
**A.** Its value is 8 mm.

**Q.** And the “Disk diffusion (mm)” value ([2]; 30% agar, protamine 300 μg/ml)?
**A.** The value was 6 mm.

**Q.** What about the “Disk diffusion (mm)” value ([2]; 30% agar, protamine 400 μg/ml) of the same substance?
**A.** The value was 6 mm.

**Q.** What about the “Disk diffusion (mm)” value ([2]; 30% agar, protamine 700 μg/ml) of the same substance?
**A.** Its value is 6 mm.

**Q.** What about the “Disk diffusion (mm)” value [2, 6] of the same substance?
**A.** Its value is 6 mm.

**Q.** And the “Diameter (mm) of colistin inhibition zone” value ([2]; 40% agar, protamine 100 μg/ml)?
**A.** The value was 11 mm.

**Q.** What about the “Diameter (mm) of colistin inhibition zone” value ([2]; 50% agar, protamine 100 μg/ml) of the same substance?
**A.** Its value is 10 mm.

**Q.** What about the “Diameter (mm) of colistin inhibition zone” value ([2]; 60% agar, protamine 100 μg/ml) of the same substance?
**A.** Its value is 13 mm.

**Q.** And the “Diameter (mm) of colistin inhibition zone” value ([2]; 70% agar, protamine 100 μg/ml)?
**A.** The value was 11 mm.

**Q.** What about the “Diameter (mm) of colistin inhibition zone” value ([2]; 80% agar, protamine 100 μg/ml) of the same substance?
**A.** Its value is 12 mm.

**Q.** And the “Diameter (mm) of colistin inhibition zone” value ([2]; 90% agar, protamine 100 μg/ml)?
**A.** The value was 12 mm.

**Q.** What about the “Disk diffusion (mm)” value ([2]; 100% agar, protamine 50 μg/ml) of the same substance?
**A.** The value was 13 mm.

**Q.** And the “Diameter (mm) of colistin inhibition zone” value ([2]; 100% agar, protamine 100 μg/ml)?
**A.** The value was 11 mm.

**Q.** And the “Disk diffusion (mm)” value ([2]; 100% agar, protamine 100 μg/ml)?
**A.** Its value is 12 mm.

**Q.** And the “Disk diffusion (mm)” value ([2]; 100% agar, protamine 150 μg/ml)?
**A.** Its value is 13 mm.

**Q.** What about the “Disk diffusion (mm)” value ([2]; 100% agar, protamine 200 μg/ml) of the same substance?
**A.** Its value is 12 mm.

**Q.** And the “Disk diffusion (mm)” value ([2]; 100% agar, protamine 300 μg/ml)?
**A.** Its value is 12 mm.

**Q.** And the “Disk diffusion (mm)” value ([2]; 100% agar, protamine 400 μg/ml)?
**A.** The value was 13 mm.

**Q.** And the “Disk diffusion (mm)” value ([2]; 100% agar, protamine 700 μg/ml)?
**A.** The value was 6 mm.

**Q.** And the “Disk diffusion (mm)” value [2, 7]?
**A.** Its value is 6 mm.

**Q.** And the “Disk diffusion (mm)” value (KPN K4036_R; [3])?
**A.** Its value is 16 mm.

**Q.** And the “Disk diffusion (mm)” value (KPN K4036_R; [4])?
**A.** Its value is 16 mm.

**Q.** What about the “Disk diffusion (mm)” value (KPN K4036_R; [5]) of the same substance?
**A.** The value was 14 mm.
